Here are results for four compounds from PubChem BioAssay AID1117327 (Cheminformatics & Chemogenomics Research Group (CCRG), …, 2015).

Calls of active or inactive are those of the source. No rule for the calls is given here.

The assay deals with C2C12 + WNT3A conditioned medium, alkaline phosphatase. Put plainly: alkaline phosphatase induction in C2C12 cells, dose response, cell-based, WNT3A-conditioned medium (AID 1117327).
Regarding `CC(=O)[C@]1(O)Cc2c(O)c3c(c(O)c2[C@@H](O[C@H]2C[C@H](N)[C@H](O)[C@H](C)O2)C1)C(=O)c1ccccc1C3=O`, the IC50 was 0.504 µM.
Turning to `COc1cc([C@@H]2c3cc4c(cc3[C@@H](O[C@@H]3O[C@@H]5CO[C@@H](C)O[C@@H]5[C@H](O)[C@@H]3O)[C@H]3COC(=O)[C@H]23)OCO4)cc(OC)c1O`, the IC50 is > 20 µM (inactive).
The figure for `CCCCCCCCCCCCNCCNCCNCC(=O)O` is > 20 µM (inactive); for `c1ccc2c(c1)Sc1ccccc1N2CC1CN2CCC1CC2` (centres undefined) it is > 20 µM (inactive).

By IC50 is commonly meant the concentration that gives 50% inhibition.
